Data taken from patent US12502391B2, “Multi-kinase inhibitors of VEGF and TGF beta and uses thereof” (AIVIVA BIOPHARMA, INC., priority 2018, dated 2025).
Values joined by “and” are separate entries in the source; they are usually repeats but may differ in a detail not shown here. Equal values may be shown once. Where a name gives a salt, the structure may show the parent alone.

Assays:
[1] = tested on: benign prostate hyperplasia; test: Testosterone and phenylephrine induced benign prostate hyperplasia in rats; format: in vivo, Wistar rats; design: key to epithelial hyperplasia score, dorsolateral prostate, representative image / epithelial hyperplasia score, ventral prostate, representative image: severity grade 0 = not present to 5 = severe
Protocol: BPH is a true hyperplastic process. Histologic studies have documented an increase in cell number. A study was conducted, therefore, to determine the effects of test compounds and vehicle on testosterone (TE) and phenylephrine (PE) induced benign prostate hyperplasia in rats. Male Wistar rats were induced with testosterone (2 mg/kg) plus phenylephrine (5 mg/kg) administered daily by subcutaneous injection on days 5 through 32. Vehicle or test compounds (all at 1% w/w), nintedanib, sunitinib, lenvatinib, and 0.5% doxazosin mesylate, were administered by intra-prostate injection (0.4 ml) in dorsolateral and ventral lobes on days 1 and 18. Animals were euthanized on day 32. Body weights were determined and prostate glands were harvested. The experimental design is outlined in Table 6.
At necropsy, the ventral and dorsolateral lobes of the prostate were separated and then cut into halves. The left halves were fixed in 10% neutral buffered formalin, sectioned, and stained with Hematoxylin and Eosin (H&E). Histological changes in these sections were scored. Epithelial hyperplasia was recognized as an increase in epithelial cells within normal-appearing gland profiles, primarily reflected by stratification of epithelial cells and increased presence of epithelial tufting and papillary projections. A severity grade of 0 (not present) through 5 (severe) was assigned to each sample.

[2] = tested on: full-thickness excision wounds; test: Histology of full-thickness excision wounds in Yucatan minipigs (fibroplasia, neovascularization); format: in vivo; conditions: Yucatan minipig wound sites after two doses, Day 59, scale 1 (minimal) to 5 (severe); for Neovascularization; dermis, average score: untreated 2.33; for Fibroplasia; dermis, average score: untreated 3.33
Excerpt: (§1) In this experiment, multiple full-thickness excision wounds were made to the dorsum of Yucatan minipigs, and the wound sites were allowed to be re-epithelialized adequately. At four weeks post-wound, the wound sites had normal to pink vascularity and had pliability. Epidermal hyperplasia was observed, as expected for regenerative responses in the full-thickness wounds.
(§2) On Day 28 post-wound, a dose (e.g., 1%) of axitinib, nintedanib, riociguat, sorafenib, sunitinib, and/or lenvatinib was administered into the dermal tissue at or around the wound sites, once every two weeks on two occasions. One wound site was left untreated as the control for each pig. Please note that the particular parameters in this example are only for illustration. One skilled in the art would appreciate that the dosages, administration methods, treatment regimen, and the administration sites may be varied to achieve similar results.
On Day 59 post wound, the minipigs were sacrificed and dermal tissues were collected for qualitative and quantitative evaluation using hematoxylin and eosin, and Mason's Trichrome staining. Dermal fibroplasia was characterized by increased numbers of fibroblasts in the dermis suspended in variable amounts of collagen in wounds.

[3] = tested on: TGF-β1 mRNA; test: TGF-β1 mRNA expression (qRT-PCR) in Yucatan pig skin wound sites; format: in vivo, Yucatan minipigs; conditions: Yucatan pig skin wound sites after treatments; for TGF-β1 mRNA Expression Fold Relative to Untreated Unwounded Control: individual animals 7369, 7370, 7371, duplicate sets 1 and 2, beta actin reference gene
Excerpt: as §1, §2
In addition, total mRNA was isolated from skin biopsies of the treated wound sites and the untreated unwounded sites of the pigs. The mRNA samples were used to prepare cDNA and analyzed via qRT-PCR. The TGF-β1 expression levels were assessed using beta actin as a reference gene.

[4] = tested on: suture-induced ocular fibrosis; test: Rabbit corneal suture-induced ocular fibrosis model; format: in vivo, rabbits; conditions: topical three times daily, 10-day observation period
Excerpt: In order to investigate the anti-fibrotic effect of test compounds following wounding in the eye, a suture-induced ocular fibrosis model was used. Suture was placed intrastromally under a microscope in the cornea of rabbits. In each eye, one 9.0 silk suture was placed, in a vertical position, temporal to the corneal center and a second suture was placed nasal to the corneal center. Each suture had two stromal incursions approximately 2 mm from the limbus. Test compounds having certain spectrum of multikinase inhibition activities and/or vehicle were topically instilled (35 uL/eye) in the eyes three times daily for 10 days the day following surgery. The treatment groups include vehicle, nintedanib (0.3%, w/v), pirfenidone (1%, w/v), riociguat (0.3%, w/v), sorafenib (0.3%, w/v) and lenvatinib (0.3%, w/v). Six left eyes were used per treatment group.
The animals were sacrificed on Day 11 and the eyes enucleated and dissected for histopathological evaluation.

[5] = tested on: subconjunctival scarring; test: Bleb survival after glaucoma filtration surgery in rabbit eyes; format: in vivo, rabbits
Protocol: In order to investigate the anti-scarring effect of topically applied test compounds following ocular surgeries, glaucoma filtration surgery was performed on rabbit eyes. Postoperative subconjunctival wound healing is a major cause of late bleb failure after glaucoma filtration surgery in humans. Select multikinase inhibitors were tested for effect on bleb survival over time. Inhibition of subconjunctival fibrosis following surgery will improve bleb survival. Vehicle was used as a negative control and pirfenidone was used a positive control.
A scleral tract was created in the left eyes superiorally by tunneling a beveled 22-gauge intravenous cannula through the sclera, beginning behind the limbus and continuing until the cannula is visible in the anterior chamber. The cannula was flushed with sodium heparin (1000 units) prior to placement. The cannula needle was withdrawn and the cannula advanced beyond the pupillary margin to prevent iris blockage of the tube. The cannula was trimmed approximately 2 mm and secured to the sclera using suture. Both the Tenon's and the conjunctiva were sutured with 9-0 Prolene. Six rabbits were used per group and the left eye of each rabbit underwent glaucoma filtration surgery. The treatment groups include vehicle control, pirfenidone (1%, w/v) as a positive control, sorafenib (0.3%, w/v), and lenvatinib (0.3%, w/v). Eyedrops (35 uL) were topically applied to the eyes following surgery three times day for 30 days. All animals were sacrificed on Day 30.
Bleb was monitored throughout the study. Bleb volumes were measured with the use of calibrated calipers. […] There were differences noted between groups at Day 7, and the majority of blebs were gone by Day 14 through Day 30 indicating bleb failure due to subconjunctival scarring. Results of the vehicle and pirfenidone groups were similar to those reported in the literature (Zhong H et al., Invest Ophthalmol Vis Sci, 52: 3136-3142, 2011).

[6] = tested on: rabbit ear hypertrophic scar; test: Histopathology of rabbit ear wounds (neovascularization, fibrosis, re-epithelization); format: in vivo, New Zealand white rabbits; design: key to Total Score, Treated Mean: aggregate of neovascularization, fibrosis, re-epithelization grades; key to Neovascularization score, Treated Mean / Fibrosis/Collagen score, Treated Mean / Re-epithelization score, Treated Mean: five-step severity grade: minimal, mild, moderate, marked, severe; conditions: rabbit ear wound, intradermal dosing of 1 wt. %
Protocol: In New Zealand white rabbits, maintained under a surgical plane of anesthesia, trauma stimulation of the skin on the ventral surface of both ears is initiated on Day 1. Trauma sites are evaluated on Days 8, 15, 22, 29, 36, and 43. On days 15 and 29, each site is dosed with test compounds (e.g., 1% w/w, 100 μl) by intradermal or intralesional injections.
At necropsy, each treatment site was harvested and preserved for hematoxylin and […] and Mason's trichrome stainings. Each lesion was examined histologically and graded for neovascularization, fibrosis and re-epithelization using a five-step/severity grading system (minimal, mild, moderate, marked, and severe). The average total score is an aggregation of these microscopic findings relating to an inflammatory response.

[7] = TE and PE induced rats, intra-prostate injection 0.4 ml on days 1 and 18 (1% w/w; doxazosin mesylate 0.5%), severity grade 0 (not present) through 5 (severe), induced vehicle score=4
[8] = five-step severity grading (minimal to severe)

SMILES: COc1cc2nc(N3CCN(C(=O)C4COc5ccccc5O4)CC3)nc(N)c2cc1OC (centres unmarked) [doxazosin, doxazosin mesylate]
- epithelial hyperplasia score, dorsolateral prostate, representative image [1, 7]: 3
- epithelial hyperplasia score, ventral prostate, representative image [1, 7]: 3
- glandular hyperplasia compared to untreated TE/PE induced prostates ([1]; TE and PE induced rats, intra-prostate injection on days 1 and 18): demonstrated reduction of glandular hyperplasia

SMILES: CCN(CC)CCNC(=O)c1c(C)[nH]c(/C=C2\C(=O)Nc3ccc(F)cc32)c1C [sunitinib]
- epithelial hyperplasia score, ventral prostate, representative image ([1]; 1 % strength): 3
- epithelial hyperplasia score, dorsolateral prostate, representative image [1, 7]: 3
- Neovascularization; dermis, average score [2]: (2.33)
- Fibroplasia; dermis, average score [2]: (2.67)
- TGF-β1 mRNA Expression Fold Relative to Untreated Unwounded Control [3]: 0.50 fold and 0.53 fold and 0.48 fold and 0.45 fold and 0.64 fold and 1.86 fold

SMILES: COC(=O)N(C)c1c(N)nc(-c2nn(Cc3ccccc3F)c3ncccc23)nc1N [riociguat]
- gross ocular observations: conjunctival congestion and swelling [4]: slightly more severe reaction
- Neovascularization; dermis, average score [2]: (2.67)
- Fibroplasia; dermis, average score [2]: (2.67)
- reduction of TGF-β1 mRNA expression levels at treated wounds [3]: most effective
- TGF-β1 mRNA Expression Fold Relative to Untreated Unwounded Control [3]: 0.60 fold and 0.76 fold and 0.87 fold and 0.39 fold and 0.49 fold and 0.8 fold

SMILES: Cc1ccc(=O)n(-c2ccccc2)c1 [pirfenidone]
- bleb survival on Day 7 ([5]; eyedrops 35 uL three times a day, pirfenidone 1% w/v, lenvatinib 0.3% w/v, compared to vehicle and sorafenib groups): kept bleb survival on Day 7
- bleb remaining / bleb failure on Day 30 ([5]; eyedrops three times a day for 30 days, 6 animals per group): demonstrated bleb failure

SMILES: CNC(=O)c1ccccc1Sc1ccc2c(/C=C/c3ccccn3)n[nH]c2c1 [axitinib]
- average total score of test wounds, fold lower than untreated wounds [6]: about 1.3 fold
- Total Score, Treated Mean ([6]; aggregation of microscopic findings): 4.6
- Fibrosis/Collagen score, Treated Mean [6, 8]: 3.3
- Neovascularization score, Treated Mean [6, 8]: 1
- Re-epithelization score, Treated Mean [6, 8]: 0.3
- Neovascularization; dermis, average score [2]: (1.67)
- Fibroplasia; dermis, average score [2]: (2.33)
- TGF-β1 mRNA Expression Fold Relative to Untreated Unwounded Control [3]: 0.89 fold and 0.68 fold (2×) and 0.64 fold and 0.37 fold and 0.78 fold
